Source: publication PMC6858373 (Scientific Reports, 2019)
Where a name gives a salt, the structure may show the parent alone. Read-outs that look alike come from different tables or passages of the source.

Tests used:
Clone V cells [1] = settings: for Toxicity Assay Z-score: human, 16 h, 30 µM
[2] = biological target: full-length P. pyralis luciferase (Photinus pyralis, UniProt P08659, K549A/L550V/N119G/N50D/S548I); type: cell-based; settings: CC_NCI screening, normalized to on-plate 0.3% DMSO controls; for Luciferase Assay % Lum: full-length luciferase counter-screen luminescence; for Luciferase Assay Z-score: full-length luciferase counter-screen
Clone V cells [3] = assay: CellTiter Blue (CTB) cell viability counter-screen; settings: for Toxicity Assay Z-score: CTB cell viability
[4] = biological target: T1, FGF14:Nav1.6 C-tail complex (Homo sapiens, UniProt Q92915+Q9UQD0); assay: Split-luciferase complementation assay (LCA) in Clone V double stable HEK293 cells; type: cell-based; settings: for Split Luciferase Assay % Lum Set 1 / Split Luciferase Assay Z-score Set 1: biological replicate Set 1; for Split Luciferase Assay % Lum Set 1 / Split Luciferase Assay %Lum Set 2: normalized to on-plate 0.3% DMSO controls (n=16 per plate); for Split Luciferase Assay %Lum Set 2 / Split Luciferase Assay Z-score Set 2: biological replicate Set 2; for Split Luciferase Assay Z-score Set 1 / Split Luciferase Assay Z-score Set 2: normalized to on-plate 0.3% DMSO controls; for Split Luciferase Assay %Lum Avg: average of Set 1 and Set 2, normalized to 0.3% DMSO controls
T1 construct: polymerase chain reaction (PCR) amplification of the FGF14 open reading frame (nt 1–855); C-terminal fragment of Nav1.6 (amino acids 1763–1976) fused with CD4ΔC-tail (amino acids 1–395); expressed in transfected cells

[5] = CC_NCI screening, CTB cell viability fluorescence, normalized to on-plate 0.3% DMSO controls
[6] = CC_NCI screening, LCA luminescence
[7] = CC_NCI screening, normalized to on-plate 0.3% DMSO controls

T1 sequence (Q92915 1-252 isoform Q92915-2): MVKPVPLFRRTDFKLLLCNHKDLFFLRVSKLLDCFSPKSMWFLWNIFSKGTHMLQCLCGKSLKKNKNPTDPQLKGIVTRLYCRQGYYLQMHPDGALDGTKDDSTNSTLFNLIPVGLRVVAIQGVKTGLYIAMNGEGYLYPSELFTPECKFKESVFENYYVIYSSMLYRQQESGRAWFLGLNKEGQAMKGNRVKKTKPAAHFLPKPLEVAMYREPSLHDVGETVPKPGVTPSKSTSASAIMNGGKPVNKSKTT
T1 sequence (Q9UQD0 1763-1976 limits assumed): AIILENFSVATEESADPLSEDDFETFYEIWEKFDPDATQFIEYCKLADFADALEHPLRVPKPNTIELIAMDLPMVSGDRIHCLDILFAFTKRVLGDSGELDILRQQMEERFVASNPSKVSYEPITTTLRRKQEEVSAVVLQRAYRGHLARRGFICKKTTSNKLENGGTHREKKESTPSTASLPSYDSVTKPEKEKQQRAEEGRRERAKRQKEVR
Sequence of full-length P. pyralis luciferase (P08659 whole entry N50D/N119G/S548I/K549A/L550V, looked up): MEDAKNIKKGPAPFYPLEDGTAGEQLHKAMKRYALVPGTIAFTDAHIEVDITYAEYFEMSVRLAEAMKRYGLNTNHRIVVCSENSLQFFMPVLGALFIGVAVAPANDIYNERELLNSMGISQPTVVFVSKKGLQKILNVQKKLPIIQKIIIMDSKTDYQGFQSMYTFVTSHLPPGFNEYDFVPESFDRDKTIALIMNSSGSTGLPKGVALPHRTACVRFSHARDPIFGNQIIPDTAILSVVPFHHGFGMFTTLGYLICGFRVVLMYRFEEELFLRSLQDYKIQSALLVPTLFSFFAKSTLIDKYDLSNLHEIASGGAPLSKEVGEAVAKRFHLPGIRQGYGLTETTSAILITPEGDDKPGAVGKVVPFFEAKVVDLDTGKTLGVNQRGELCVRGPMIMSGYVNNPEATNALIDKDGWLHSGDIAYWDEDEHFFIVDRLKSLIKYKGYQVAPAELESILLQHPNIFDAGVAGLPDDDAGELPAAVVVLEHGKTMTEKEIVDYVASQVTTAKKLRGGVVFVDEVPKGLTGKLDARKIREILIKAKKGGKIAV

Row | Structure (SMILES) | Toxicity Assay Z-score (Clone V cells [1]) | Luciferase Assay % Lum [2] [%] | Luciferase Assay Z-score [2] | Toxicity Assay % Fluor (Clone V cells [3]; [5]) [%] | Split Luciferase Assay % Lum Set 1 [4, 6] [%] | Split Luciferase Assay %Lum Set 2 [4, 6] [%] | Split Luciferase Assay Z-score Set 1 ([4]; CC_NCI screening, LCA) | Split Luciferase Assay Z-score Set 2 ([4]; CC_NCI screening, LCA) | Split Luciferase Assay %Lum Avg ([4]; CC_NCI screening) [%] | Toxicity Assay % Fluor (CTB cell viability fluorescence) (Clone V cells [1]) [%] | Luciferase Assay % Lum (full-length luciferase counter-screen) [2] [%] | Luciferase Assay Z-score (full-length luciferase counter-screen) [2] | Toxicity Assay Z-score (CTB cell viability) (Clone V cells [3]; [7]) | Split Luciferase Assay Z-score Set 1 ([4]; CC_NCI screening) | Split Luciferase Assay % Lum Set 1 ([4]; CC_NCI screening) [%] | Split Luciferase Assay Z-score Set 2 ([4]; CC_NCI screening) | Split Luciferase Assay %Lum Set 2 ([4]; CC_NCI screening) [%] | Split Luciferase Assay %Lum Avg [4] [%] | Toxicity Assay Z-score (Clone V cells [3]; [7]) | Toxicity Assay % Fluor (Clone V cells [3]) [%]
1 | COC(=O)C[C@](O)(CCCC(C)(C)O)C(=O)O[C@@H]1C(OC)=C[C@]23CCCN2CCc2cc4c(cc2[C@H]13)OCO4 [Omacetaxine mepesuccinate] | -0.87 | 87.82 | -1.56 | 93.81 | 20.98 | 19.77 | -6.39 | -6.53 | 20.37 |  |  |  |  |  |  |  |  |  |  | 
2 | C=CC[C@@H]1/C=C(\C)C[C@H](C)C[C@H](OC)[C@H]2O[C@@](O)(C(=O)C(=O)N3CCCC[C@H]3C(=O)O[C@H](/C(C)=C/[C@@H]3CC[C@@H](O)[C@H](OC)C3)[C@H](C)[C@@H](O)CC1=O)[C@H](C)C[C@@H]2OC [FK-506] | 1.82 | 77.49 | -2.88 | 113.03 | 80.77 | 91.55 | -1.55 | -0.69 | 86.16 |  |  |  |  |  |  |  |  |  |  | 
3 | CC(=O)OCCN1C(=O)c2c(C)nc3ccc(S(=O)(=O)N4CCOCC4)cc3c2C1=O [IVACHTIN] |  |  |  |  |  |  |  |  |  | 108.95 | 102.63 | 0.34 | 1.25 | 0.99 | 112.30 | -3.23 | 60.34 | 86.32 |  | 
4 | N#Cc1ccc(C(c2ccc(C#N)cc2)n2cncn2)cc1 [Letrozole] | -0.88 | 99.90 | -0.01 | 93.68 | 99.25 | 115.47 | -0.06 | 1.26 | 107.36 |  |  |  |  |  |  |  |  |  |  | 
5 | CC[C@]1(O)C[C@H]2CN(CCc3c([nH]c4ccccc34)[C@@](C(=O)OC)(c3cc4c(cc3OC)N(C=O)[C@H]3[C@@](O)(C(=O)OC)[C@H](OC(C)=O)[C@]5(CC)C=CCN6CC[C@]43[C@@H]65)C2)C1 [Vincristine sulfate] | -0.20 | 109.71 | 1.24 | 98.56 | 200.35 | 196.62 | 8.11 | 7.86 | 198.49 |  |  |  |  |  |  |  |  |  |  | 
6 | Oc1ccc(-c2nc(-c3ccncc3)c(-c3ccc(F)cc3)[nH]2)cc1 [SB 202190] | -0.55 | 79.13 | -2.67 | 96.10 | 101.43 | 105.07 | 0.12 | 0.41 | 103.25 |  |  |  |  |  |  |  |  |  |  | 
7 | O=C1CCC(N2C(=O)c3ccccc3C2=O)C(=O)N1 (centres unmarked) [Thalidomide] | -1.74 | 100.85 | 0.11 | 87.53 | 128.60 | 108.19 | 2.31 | 0.67 | 118.40 |  |  |  |  |  |  |  |  |  |  | 
8 | CS(=O)(=O)CCNCc1ccc(-c2ccc3ncnc(Nc4ccc(OCc5cccc(F)c5)c(Cl)c4)c3c2)o1 [LAPATINIB] | -2.02 | 87.41 | -1.61 | 85.57 |  | 95.71 |  | -0.35 | 107.26 |  |  |  |  |  |  |  |  |  |  | 
9 | CC1(C)CCC(c2ccc(Cl)cc2)=C(CN2CCN(c3ccc(C(=O)NS(=O)(=O)c4ccc(N[C@H](CCN5CCOCC5)CSc5ccccc5)c(S(=O)(=O)C(F)(F)F)c4)cc3)CC2)C1 [ABT-263] | -0.99 | 103.24 | 0.42 | 92.92 | 93.82 | 71.78 | -0.50 | -2.30 | 82.80 |  |  |  |  |  |  |  |  |  |  | 
10 | C[C@]12CC[C@@H]3c4ccc(O)cc4C[C@@H](CCCCCCCCC[S+]([O-])CCCC(F)(F)C(F)(F)F)[C@H]3[C@@H]1CC[C@@H]2O (some centres unmarked) [Fulvestrant] |  | 83.45 | -2.12 | 83.63 | 94.90 | 91.55 | -0.41 | -0.69 | 93.23 |  |  |  |  |  |  |  |  |  | -2.29 | 
11 | CO[C@H]1C(=O)[C@]2(C)[C@@H](OC)C[C@H]3OC[C@@]3(OC(C)=O)[C@H]2[C@H](OC(=O)c2ccccc2)[C@]2(O)C[C@H](OC(=O)[C@H](O)[C@@H](NC(=O)OC(C)(C)C)c3ccccc3)C(C)=C1C2(C)C [Cabazitaxel] |  | 90.38 | -1.23 | 82.13 | 101.43 | 112.35 | 0.12 | 1.01 | 106.89 |  |  |  |  |  |  |  |  |  | -2.50 | 
12 | CC[C@@H]1C(=O)N(C)c2cnc(Nc3ccc(C(=O)NC4CCN(C)CC4)cc3OC)nc2N1C1CCCC1 [BI 2536, reference compound] | -0.11 |  |  |  |  |  |  |  |  |  |  |  |  |  |  |  |  |  |  | 99.22
13 | Nc1nc(Cl)nc2c1ncn2[C@H]1C[C@H](O)[C@@H](CO)O1 [Cladribine] |  | 98.25 | -0.22 | 83.86 |  |  |  | 3.04 |  |  |  |  |  |  |  |  |  |  | -2.26 | 
14 | CN1CCN(CCOc2cc(OC3CCOCC3)c3c(Nc4c(Cl)ccc5c4OCO5)ncnc3c2)CC1 [AZD 0530] |  | 98.71 | -0.17 | 89.05 | 36.20 | 60.34 | -5.16 | -3.23 | 48.27 |  |  |  |  |  |  |  |  |  | -1.53 | 
15 | CCCCCCCCCCCCCCCCCCOP(=O)([O-])OC1CC[N+](C)(C)CC1 [PERIFOSINE] |  | 103.68 | 0.47 | 83.07 | 86.21 | 89.47 | -1.11 | -0.86 | 87.84 |  |  |  |  |  |  |  |  |  | -2.37 | 
